Experimental findings from ChEMBL document CHEMBL4177614, “Development of a microarray-based assay for efficient testing of new HSP70/DnaK inhibitors” (Bioorg Med Chem, 2017) are described below.

What is called EC50 is the concentration that produces a half-maximal response. Usually Kd stands for a measure of binding affinity in units of concentration. The low end stands for a tighter complex, the high end for a looser complex.

Active and inactive are the calls of the source. The calls are words filed in the database; no cut-off is given here.

Assay [1] in a line: Displacement of Cy5-labelled (position-4) ATP from human HSP70 expressed in Escherichia coli BL21(DE3) after 16 hrs by microarray assay.
The species entered for assay [2] is Homo sapiens. Nature of the assay: Binding affinity to human HSP70 expressed in Escherichia coli BL21(DE3) at 100 uM after 16 hrs microarray assay.
Assay [3] in a line: Displacement of Cy5-labelled (position-4) ATP from Mycobacterium tuberculosis HSP70 expressed in Escherichia coli BL21(DE3) after 16 hrs by microarray assay.

Take `COc1ccc(-c2c(O)c(O)c(-c3ccc(OC)cc3)c(OC)c2OC)cc1`: the midpoint of the response in assay [1], the EC50, lay at 49 µM. Take `CC[N+]1=C(/C=C/C=C/C=C2/N(CCCCCC(=O)NCCCCCCNP(=O)(O)OP(=O)(O)OP(=O)(O)OC[C@H]3O[C@@H](n4cnc5c(N)ncnc54)[C@H](O)[C@@H]3O)c3ccc(S(=O)(=O)O)cc3C2(C)C)C(C)(C)c2cc(S(=O)(=O)[O-])ccc21`: the outcome in assay [2] was inactive. In turn, `COc1ccc(-c2c(OC)c(O)c(-c3ccc(O)cc3)c(O)c2OC)cc1` gave an EC50 in assay [1] of 29 µM. In assay [1], `Nc1ncnc2c1ncn2[C@@H]1O[C@H](COP(=O)(O)OP(=O)(O)OP(=O)(O)O)[C@@H](O)[C@H]1O` [ADENOSINE TRIPHOSPHATE] had an EC50 of 0.001 µM and a dissociation constant (Kd) of 0.037 µM. Moreover, in assay [3], the EC50 turned out to be 0.001 µM and the Kd worked out at 0.037 µM. As to `CC[N+]1=C(/C=C/C=C/C=C2/N(CCCCCC(=O)NCCCCCCNc3nc4c(N)ncnc4n3[C@@H]3O[C@H](COP(=O)(O)OP(=O)(O)OP(=O)(O)O)[C@@H](O)[C@H]3O)c3ccc(S(=O)(=O)O)cc3C2(C)C)C(C)(C)c2cc(S(=O)(=O)[O-])ccc21`, the equilibrium dissociation constant (Kd) in assay [1] amounted to 2.3 µM. For the molecule `CC[N+]1=C(/C=C/C=C/C=C2/N(CCCCCC(=O)NCCCCCCNc3ncnc4c3ncn4[C@@H]3O[C@H](COP(=O)(O)OP(=O)(O)OP(=O)(O)O)[C@@H](O)[C@H]3O)c3ccc(S(=O)(=O)O)cc3C2(C)C)C(C)(C)c2cc(S(=O)(=O)[O-])ccc21`, it took 0.484 µM to reach a half-maximal effect in assay [1] (EC50). In addition, the affinity in assay [3], expressed as Kd, was 30.6 µM.
